Values of other authors as cited in patent publication US20210299134A1, “TREATMENT OF B CELL MALIGNANCIES” (MEI Pharma, Inc., priority 2018, published 2021).

Assays:
TREGs = settings: after administration of a single dose; cited from earlier work
[1] = cited from earlier work
B-cell malignancies = settings: a day per week dosing after once daily dosing for two 28-day cycles; preliminary data; cited from earlier work

Compound | time to TREGs repopulation (TREGs) | plasma levels versus tissue levels ([1]; FIG. 6B) | plasma levels >IC90, share of time ([1]; once weekly dosing) | incidence of severe irAEs on IS (B-cell malignancies) | tumor progression on IS (B-cell malignancies)
denileukin diftitox | approximately 14 days |  |  |  | 
CCOc1c([C@H](C)n2nc(C)c3c(N)ncnc32)cc(Cl)c(F)c1[C@@H]1CNC(=O)C1 [parsaclisib] |  | plasma approximates tissue levels | 32% | decrease in the incidence of severe irAEs | high rate of tumor progression
